The experiment deals with AR protein. Briefly: Western blotting of AR protein level in PCa cell lines. In kind it is cell-based, human. Conditions: LNCaP, 22RV1, LNCaP-MDV3100-R and VCaP cell lines (CEL: LNCaP and 22RV1, 12 h). The text has this:
Scale bars, 10 μm. […] Scale bars, 20 μm.
On the technique in general: In western blotting, separated proteins are transferred to a membrane and probed.

As for `CC1=C(O)C(=O)C=C2C1=CC=C1[C@@]2(C)CC[C@@]2(C)[C@@H]3C[C@](C)(C(=O)O)CC[C@]3(C)CC[C@]12C` [CEL, Celastrol], the AR protein level entry is on record as “downregulated the protein level of AR”.
